Laboratory results from patent US11976334B2, “Inhibitor of ATR kinase for use in a method of treating a hyper-proliferative disease” (Bayer Aktiengesellschaft, priority 2017, dated 2024).

Assays:
[1] = test system: U-87MG; assay: Tumor cell proliferation, U-87MG (crystal violet); format: cell-based; conditions: Homo sapiens, 96 h, Glioblastoma, 4 days, read-out: in vitro (IC50, nM), inhibition of tumor cell proliferation
Text: (§1) All measurements were done in quadruplicates.

[2] = test system: LOVO xenograft (colorectal cancer); conditions: mouse, in vivo, po, 50 mg/kg
Method: (§2) For this purpose, mice were implanted subcutaneously with tumor cells. […] The oral application volume was 10 ml/kg. The time interval between two applications per day was 6-7 h. […] The tumor size and the body weight were determined three times weekly. Changes in the body weight were a measure of treatment-related toxicity (>10%=critical, stop of treatment until recovery, >20%=toxic, termination). The tumor area was detected by means of an electronic caliper gauge [length (mm)×width (mm)]. In vivo anti-tumor efficacy is presented as T/C ratio (Treatment/Control) calculated with tumor areas at study end by the formula [(tumor area of treatment group at day x)−(tumor area of treatment group at day before first treatment)]/[(tumor area of control group at day x)−(tumor area of control group at day before first treatment)]. […] Statistical analysis was assessed using SigmaStat software. A one-way analysis of variance was performed and differences to the control were compared by a pair-wise comparison procedure (Dunn's method).

[3] = test system: A2780 xenograft (ovarian); conditions: mouse, in vivo, po, 50 mg/kg
Method: as §2

[4] = test system: REC-1 xenograft (mantle cell lymphoma); conditions: mouse, in vivo, po, 50 mg/kg
Method: as §2

[5] = test system: PC3 xenograft (prostate); conditions: mouse, in vivo, po, 50 mg/kg
Method: as §2

[6] = test system: SU-DHL-8; assay: Tumor cell proliferation, SU-DHL-8 (Cell Titer Glo); format: cell-based; conditions: Homo sapiens, 96 h; SU-DHL-8, Lymphoma, B cell; 4 days; read-out: in vitro (IC50, nM), inhibition of tumor cell proliferation
Method: (§3) Non-adherent growing GRANTA-519, Jeko-1, JVM-2, NCI-H929, Rec-1 and SU-DHL-8 cells were seeded in 150 μl of growth medium at 4000 cells/well (NCI-H929, 5000 cells/well) in 96-well microtiter plates and incubated for 24 h at 37° C. […] All measurements were done in quadruplicates.

[7] = test system: NCI-H2030; assay: Tumor cell proliferation, NCI-H2030 (crystal violet); format: cell-based; conditions: Homo sapiens, 96 h; NCI-H2030, Lung; 4 days; read-out: in vitro (IC50, nM), inhibition of tumor cell proliferation
Text: as §1

[8] = test system: HT-144; assay: Tumor cell proliferation, HT-144 (crystal violet); format: cell-based; conditions: Homo sapiens, 96 h; HT-144, Melanoma; 4 days; read-out: in vitro (IC50, nM), inhibition of tumor cell proliferation
Text: as §1

[9] = test system: GRANTA-519; assay: Tumor cell proliferation, GRANTA-519 (Cell Titer Glo); format: cell-based; conditions: Homo sapiens, 96 h; GRANTA-519, Lymphoma, mantle cell; 4 days; read-out: in vitro (IC50, nM), inhibition of tumor cell proliferation
Method: as §3

[10] = test system: MIAPaCa2; assay: Tumor cell proliferation, MIAPaCa2 (crystal violet); format: cell-based; conditions: Homo sapiens, MIA PaCa-2, 96 h; MIAPaCa2, Pancreas; 4 days; read-out: in vitro (IC50, nM), inhibition of tumor cell proliferation
Text: as §1

[11] = test system: PC-3 human prostate cancer cells; assay: Proliferation of PC-3 cells (crystal violet); format: cell-based; conditions: PC-3, 96 h, PC3, Prostate, 4 days, read-out: in vitro (IC50, nM), inhibition of tumor cell proliferation
Method: (§4) PC-3 human prostate cancer cells were obtained from the DSMZ-German Collection of Microorganisms and Cell Cultures (Germany) (DSMZ ACC-465). They were plated in DMEM/Ham's F12 medium with stable Glutamine+10% FCS at 5000 cells/well in a 96-well microtiter plate. After 24 h, the cells from one microtiter plate were stained with crystal violet (==>0 plate), whereas the cells in the test plates were exposed continuously for 4 days to test substances. Cell proliferation was determined by staining with crystal violet. The absorbance was determined photometrically at 595 nm using a Tecan Sunrise instrument.

[12] = test system: LAPC-4 human prostate cancer cells; assay: Proliferation of LAPC-4 cells (Alamar Blue); format: cell-based; conditions: 168 h, LapC4, Prostate, R1881 1 nM, day 7, read-out: in vitro (IC50, nM), inhibition of tumor cell proliferation
Method: LAPC-4 human prostate cancer cells were obtained from the VTT Technical Resarch Center (Finland). They were plated in RPMI 1640 (RPMI=Roswell Park Memorial Institute) medium without phenol red+10% charcoal-stripped FCS (FCS=Fetal Calf Serum)+2 mM L-Glutamine at 4000 cells/well in a 96-well microtiter plate. […] Cell number was determined by Alamar Blue staining (2 h) at day 7. Fluorescence was determined in a Victor X3 device (excitation 530 nm; emission 590 nm). The inhibition of cell growth was calculated by normalization with respect to the fluorescence reading (cell number) measured at the end of the experiment for cells treated with R1881 alone compared to the fluorescence reading (cell number) measured at the end of the experiment for DMSO-treated cells.

[13] = test system: NCI-H23; assay: Tumor cell proliferation, NCI-H23 (crystal violet); format: cell-based; conditions: Homo sapiens, 96 h; NCI-H23, Lung; 4 days; read-out: in vitro (IC50, nM), inhibition of tumor cell proliferation
Text: as §1

[14] = test system: DLD-1 BRCA2 (−/−); assay: Isogenic tumor cell line proliferation, DLD-1 BRCA2 (−/−); format: cell-based; conditions: Homo sapiens, 168 h, BRCA2 deficiency, 7 days, CTG, read-out: in vitro (IC50, nM), inhibition of isogenic tumor cell line proliferation
Method: (§5) The isogenic DLD-1 cell lines DLD-1 parental, DLD-1 BRCA2 (−/−) and DLD-1 ATM (−/−) (see Table 3: Test systems) were seeded in RPMI 1640 (RPMI=Roswell Park Memorial Institute) medium without phenol red+10% charcoal-stripped FCS (FCS=Fetal Calf Serum)+2 mM L-Glutamine+25 mM Sodium Bicarbonate at 2,500 cells/well in a 96-well microtiter plate. […] All measurements were done in quadruplicates.

[15] = test system: SK-OV-3; assay: Tumor cell proliferation, SK-OV-3 (crystal violet); format: cell-based; conditions: Homo sapiens, 96 h; SK-OV-3, Ovarian; 4 days; read-out: in vitro (IC50, nM), inhibition of tumor cell proliferation
Text: as §1

[16] = test system: 22RV1 human prostate cancer cells; assay: Proliferation of 22Rv1 cells (crystal violet); format: cell-based; conditions: 96 h, 22Rv1, Prostate, 4 days, read-out: in vitro (IC50, nM), inhibition of tumor cell proliferation
Method: as §4, with “22RV1” for “PC-3”, “American Type Culture” for “DSMZ-German”, “(ATCC CRL-2505).” for “of Microorganisms and Cell Cultures (Germany) (DSMZ ACC-465).”, “RPMI1640” for “DMEM/Ham's F12”, “medium supplemented” for “medium”, “10%” for “stable Glutamine+10%”

[17] = test system: VCaP human prostate cancer cells; assay: Proliferation of VCaP cells (Alamar Blue); format: cell-based; conditions: 168 h, day 7, read-out: in vitro (IC50, nM), inhibition of tumor cell proliferation
Method: VCaP human prostate cancer cells were obtained from the VTT Technical Research Center (Finland). They were plated in DMEM medium (DMEM=Dulbecco's Modified Eagle Medium) with stable glutamine+10% FCS at 16000 cells/well in a 96-well microtiter plate. […] Cell number was determined by Alamar Blue staining (2 h) at day 0 and day 7. Fluorescence was determined in a Victor X3 device (excitation 530 nm; emission 590 nm). The inhibition of cell growth was calculated by normalization with respect to the fluorescence reading (cell number) measured at the end of the experiment for cells treated with R1881 alone compared to the fluorescence reading (cell number) measured at the start of the experiment for DMSO-treated cells.

[18] = test system: Jeko-1; assay: Tumor cell proliferation, Jeko-1 (Cell Titer Glo); format: cell-based; conditions: Homo sapiens, 96 h; Jeko-1, Lymphoma, mantle cell; 4 days; read-out: in vitro (IC50, nM), inhibition of tumor cell proliferation
Method: as §3

[19] = test system: A549; assay: Tumor cell proliferation, A549 (crystal violet); format: cell-based; conditions: Homo sapiens, 96 h; A549, Lung; 4 days; read-out: in vitro (IC50, nM), inhibition of tumor cell proliferation
Text: as §1

[20] = test system: BxPC3; assay: Tumor cell proliferation, BxPC3 (crystal violet); format: cell-based; conditions: Homo sapiens, BXPC-3, 96 h; BxPC3, Pancreas; 4 days; read-out: in vitro (IC50, nM), inhibition of tumor cell proliferation
Text: as §1

[21] = test system: AsPc-1; assay: Tumor cell proliferation, AsPc-1 (crystal violet); format: cell-based; conditions: Homo sapiens, ASPC1, 96 h; AsPc-1, Pancreas; 4 days; read-out: in vitro (IC50, nM), inhibition of tumor cell proliferation
Text: as §1

[22] = test system: TMD-8; assay: Tumor cell proliferation, TMD-8; format: cell-based; conditions: Homo sapiens, TMD8, 96 h; TMD-8, Lymphoma, B cell; 4 days; read-out: in vitro (IC50, nM), inhibition of tumor cell proliferation
Text: as §1

[23] = test system: C4-2B; assay: Tumor cell proliferation, C4-2B (crystal violet); format: cell-based; conditions: Homo sapiens, 96 h, Prostate, 4 days, read-out: in vitro (IC50, nM), inhibition of tumor cell proliferation
Text: as §1

[24] = test system: REC-1; assay: Tumor cell proliferation, REC-1 (Cell Titer Glo); format: cell-based; conditions: Homo sapiens, Rec1, 96 h; REC-1, Lymphoma, mantle cell; 4 days; read-out: in vitro (IC50, nM), inhibition of tumor cell proliferation
Method: as §3

[25] = test system: JVM-2; assay: Tumor cell proliferation, JVM-2 (Cell Titer Glo); format: cell-based; conditions: Homo sapiens, 96 h; JVM-2, Lymphoma, mantle cell; 4 days; read-out: in vitro (IC50, nM), inhibition of tumor cell proliferation
Method: as §3

[26] = test system: M059J; assay: Tumor cell proliferation, M059J (crystal violet); format: cell-based; conditions: Homo sapiens, 96 h, Glioblastoma, 4 days, read-out: in vitro (IC50, nM), inhibition of tumor cell proliferation
Text: as §1

[27] = test system: HT29; assay: Tumor cell proliferation, HT29 (crystal violet); format: cell-based; conditions: Homo sapiens, HT-29, 96 h; HT29, Colorectal; 4 days; read-out: in vitro (IC50, nM), inhibition of tumor cell proliferation
Text: as §1

[28] = test system: HCC70; assay: Tumor cell proliferation, HCC70 (crystal violet); format: cell-based; conditions: Homo sapiens, 96 h; HCC70, Breast; 4 days; read-out: in vitro (IC50, nM), inhibition of tumor cell proliferation
Text: as §1

[29] = test system: DLD-1 parental; assay: Isogenic tumor cell line proliferation, DLD-1 parental; format: cell-based; conditions: Homo sapiens, 168 h, Colorectal, 7 days, CTG, read-out: in vitro (IC50, nM), inhibition of isogenic tumor cell line proliferation
Method: as §5

[30] = test system: LNCaP human prostate cancer cells; assay: Proliferation of LNCaP cells (CellTiter-Glow); format: cell-based; conditions: 144 h, R1881 1 nM, day 6, read-out: in vitro (IC50, nM), inhibition of tumor cell proliferation
Method: They were plated in RPMI1640 medium without phenol red+10% charcoal-stripped FCS at 600 cells/well in a 384-well white plate. […] Cell number was determined by CellTiter-Glow (Promega) at day 0 and day 6. Luminescence was determined in Victor X3. The inhibition of cell growth was calculated by normalization with respect to the fluorescence reading (cell number) measured at the end of the experiment for cells treated with R1881 alone compared to the fluorescence reading (cell number) measured at the start of the experiment for DMSO-treated cells.

**Q.** `C[C@@H]1COCCN1c1cc(-c2ccnn2C)c2ccnc(-c3ccn[nH]3)c2n1` [Compound A, 2-[(3R)-3-methylmorpholin-4-yl]-4-(1-methyl-1H-pyrazol-5-yl)-8-(1H-pyrazol-5-yl)-1,7-naphthyridine] was tested. Which IC50 [1] did it give?
**A.** 64 nM

**Q.** What about the “Max. weight loss (%)” value [2] of the same molecule?
**A.** −8%

**Q.** What about the “Max. weight loss (%)” value [3] of the same molecule?
**A.** −6%

**Q.** And the “Max. weight loss (%)” value [4]?
**A.** −10%

**Q.** What about the “Max. weight loss (%)” value [5] of the same molecule?
**A.** −7%

**Q.** What about the IC50 [6] of the same molecule?
**A.** 9 nM

**Q.** What about the IC50 [7] of the same molecule?
**A.** 160 nM

**Q.** What about the IC50 [8] of the same molecule?
**A.** 40 nM

**Q.** What about the IC50 [9] of the same molecule?
**A.** 30 nM

**Q.** And the IC50 [10]?
**A.** 380 nM

**Q.** What about the IC50 [11] of the same molecule?
**A.** 490 nM

**Q.** What about the IC50 [12] of the same molecule?
**A.** 55 nM

**Q.** What about the IC50 [13] of the same molecule?
**A.** 18 nM

**Q.** What about the IC50 [14] of the same molecule?
**A.** 27 nM

**Q.** What about the IC50 [15] of the same molecule?
**A.** 33 nM

**Q.** And the IC50 [16]?
**A.** 36 nM

**Q.** And the IC50 [17]?
**A.** 51 nM

**Q.** And the IC50 [18]?
**A.** 18 nM

**Q.** And the IC50 [19]?
**A.** 29 nM

**Q.** What about the IC50 [20] of the same molecule?
**A.** 44 nM

**Q.** And the IC50 [21]?
**A.** 49 nM

**Q.** What about the IC50 [22] of the same molecule?
**A.** 179 nM

**Q.** What about the IC50 [23] of the same molecule?
**A.** 50 nM

**Q.** And the IC50 [24]?
**A.** 10 nM

**Q.** And the IC50 [25]?
**A.** 32 nM

**Q.** And the IC50 [26]?
**A.** 80 nM

**Q.** What about the IC50 [27] of the same molecule?
**A.** 160 nM

**Q.** And the IC50 [28]?
**A.** 27 nM

**Q.** And the IC50 [29]?
**A.** 50 nM

**Q.** And the IC50 [30]?
**A.** 18 nM
